Results taken from patent US20130190289A1, “COMPOUNDS AND METHODS FOR THE TREATMENT OR PREVENTION OF FLAVIVIRUS INFECTIONS” (priority 2010, published 2013).
Like-named read-outs stand apart in the source and are kept apart here.

How the values were obtained:
[1] = tested on: HCV replicon (genotype 1b) in Huh7 cell line ET; assay: microbe, parasite or virus in culture; assay type: cell-based, HCV genotype 1b; settings: Hepatitis C virus
[2] = [3H]Thymidine incorporation assay (cell toxicity); settings: human
[3] = Huh-7, read-out: HCV-Replicon-(Luci-ET) 1b_IC50
[4] = Huh-7, 96 h, read-out: HCV-Replicon (Luci-ET)-1b_IC50

| Compound | IC50 [1, 3] | CC50 at 72 h [2] | IC50 [1, 4] |
| --- | --- | --- | --- |
| CC(C)NC(=O)CN(c1cc(C#CC(C)(C)C)sc1C(=O)O)C(=O)[C@H]1CC[C@H](C)CC1 [Compound 73, 5-(3,3-dimethylbut-1-ynyl)-3-[[2-(isopropylamino)-2-oxo-ethyl]-(trans-4-methylcyclohexanecarbonyl)amino]thiophene-2-carboxylic acid] | < 0.1 µM | > 100 µM |  |
| C[C@@H](O)[C@@H](C(=O)N1CCOCC1)N(c1cc(C#CC(C)(C)C)sc1C(=O)O)C(=O)[C@H]1CC[C@H](C)CC1 [Compound 60, 5-(3,3-Dimethylbut-1-ynyl)-3-[[(1S,2R)-2-hydroxy-1-(morpholine-4-carbonyl)propyl]-(trans-4-methylcyclohexanecarbonyl)amino]thiophene-2-carboxylic acid] | < 0.1 µM | > 100 µM |  |
| C[C@H]1CC[C@H](C(=O)N(CC(=O)N2CCOCC2)c2cc(-c3ccc(Oc4ccccc4)cc3)sc2C(=O)O)CC1 [Compound 151, 3-[(trans-4-methylcyclohexanecarbonyl)-(2-morpholino-2-oxo-ethyl)amino]-5-(4-phenoxyphenyl)thiophene-2-carboxylic acid] |  | 10 to 100 µM | 0.1 to 1 µM |
| CCC[C@@H](C(=O)N(C)C)N(c1cc(C#CC(C)(C)C)sc1C(=O)O)C(=O)[C@H]1CC[C@H](C)CC1 [Compound 68, 5-(3,3-Dimethylbut-1-ynyl)-3-[[(1S)-1-(dimethylcarbamoyl)butyl]-(trans-4-methylcyclohexanecarbonyl)amino]thiophene-2-carboxylic acid] | < 0.1 µM | 10 to 100 µM |  |
| CNC(=O)CN(c1cc(C#CC(C)(C)C)sc1C(=O)O)C(=O)[C@H]1CC[C@H](C)CC1 [Compound 1, 5-(3,3-dimethylbut-1-ynyl)-3-[[2-(methylamino)-2-oxo-ethyl]-(trans-4-methylcyclohexanecarbonyl)amino]thiophene-2-carboxylic acid] | < 0.1 µM | 10 to 100 µM |  |
| CC(CC(=O)N(C)C)N(c1cc(C#CC(C)(C)C)sc1C(=O)O)C(=O)[C@H]1CC[C@H](C)CC1 (relative stereo) [Compound 99, 3-[[3-(Dimethylamino)-1-methyl-3-oxo-propyl]-(trans-4-methylcyclohexanecarbonyl)amino]-5-(3,3-dimethylbut-1-ynyl)thiophene-2-carboxylic acid] | < 0.1 µM | 10 to 100 µM |  |
| CNC(=O)CN(C(=O)C1CCC(C)CC1)c1cc(C#CC(C)C)sc1C(=O)O (centres unmarked) [Compound 70] | < 0.1 µM | > 100 µM |  |
| CO[C@H](C)[C@@H](C(=O)N1CCOCC1)N(c1cc(C#CC(C)(C)C)sc1C(=O)O)C(=O)[C@H]1CC[C@H](C)CC1 [Compound 58, 5-(3,3-Dimethylbut-1-ynyl)-3-[[(1S,2R)-2-methoxy-1-(morpholine-4-carbonyl)propyl]-(trans-4-methylcyclohexanecarbonyl)amino]thiophene-2-carboxylic acid] | < 0.1 µM | > 100 µM |  |
| C[C@@H](C(=O)N1CCC(O)CC1)N(c1cc(C#CC(C)(C)C)sc1C(=O)O)C(=O)[C@H]1CC[C@H](C)CC1 [Compound 20, 5-(3,3-Dimethylbut-1-ynyl)-3-[[(1S)-2-(4-hydroxy-1-piperidyl)-1-methyl-2-oxo-ethyl]-(trans-4-methylcyclohexanecarbonyl)amino]thiophene-2-carboxylic acid] | < 0.1 µM | > 100 µM |  |
| CCOC[C@@H](C(=O)N(C)C)N(c1cc(C#CC(C)(C)C)sc1C(=O)O)C(=O)[C@H]1CC[C@H](C)CC1 [Compound 88, 3-[[(1S)-2-(Dimethylamino)-1-(ethoxymethyl)-2-oxo-ethyl]-(trans-4-methylcyclohexanecarbonyl)amino]-5-(3,3-dimethylbut-1-ynyl)thiophene-2-carboxylic acid] | < 0.1 µM | > 100 µM |  |
| COC(C)(C)C#Cc1cc(N(CC(=O)N2CCOCC2)C(=O)[C@H]2CC[C@H](C)CC2)c(C(=O)O)s1 [Compound 129, 5-(3-methoxy-3-methyl-but-1-ynyl)-3-[(trans-4-methylcyclohexanecarbonyl)-(2-morpholino-2-oxo-ethyl)amino]thiophene-2-carboxylic acid] |  | > 100 µM | 0.1 to 1 µM |
| CCN1CCCC[C@H](N(C(=O)c2ccc(Cl)cc2Cl)c2cc(C#CC(C)(C)C)sc2C(=O)O)C1=O [Compound 135, (S)-5-(3,3-dimethylbut-1-ynyl)-3-[(2,4-dichlorobenzoyl)-N-(1-ethyl-2-oxoazepan-3-yl)amino]-thiophene-2-carboxylic acid] |  | > 100 µM | < 0.1 µM |
| C[C@@H](C(=O)N1CC[C@@H](O)C1)N(c1cc(C#CC(C)(C)C)sc1C(=O)O)C(=O)[C@H]1CC[C@H](C)CC1 [Compound 32, 5-(3,3-Dimethylbut-1-ynyl)-3-[[(1S)-2-[(3R)-3-hydroxypyrrolidin-1-yl]-1-methyl-2-oxo-ethyl]-(trans-4-methylcyclohexanecarbonyl)amino]thiophene-2-carboxylic acid] | < 0.1 µM | > 100 µM |  |
| CC(C)N1CC[C@@H](N(c2cc(C#CC(C)(C)C)sc2C(=O)O)C(=O)[C@H]2CC[C@H](C)CC2)C1=O [Compound 141, 5-(3,3-dimethylbut-1-ynyl)-3-[[(3R)-1-isopropyl-2-oxo-pyrrolidin-3-yl]-(trans-4-methylcyclohexanecarbonyl)amino]thiophene-2-carboxylic acid] |  | > 100 µM | < 0.1 µM |
| CN1CCC[C@H](N(c2cc(C#CC(C)(C)C)sc2C(=O)O)C(=O)[C@H]2CC[C@H](C)CC2)C1=O [Compound 117, 5-(3,3-dimethylbut-1-yn-1-yl)-3-(trans-4-methyl-N—((S)-1-methyl-2-oxopiperidin-3-yl)cyclohexanecarboxamido)thiophene-2-carboxylic acid] | < 0.1 µM | > 100 µM |  |
| COC[C@@H](C(=O)N1CCOCC1)N(C(=O)C1CCCCC1)c1cc(C#CC(C)(C)C)sc1C(=O)O [Compound 24, 3-[Cyclohexanecarbonyl-[(1S)-1-(methoxymethyl)-2-morpholino-2-oxo-ethyl]amino]-5-(3,3-dimethylbut-1-ynyl)thiophene-2-carboxylic acid] | < 0.1 µM | > 100 µM |  |
| CO[C@@H](C)[C@@H](C(=O)N(C)C)N(c1cc(C#CC(C)(C)C)sc1C(=O)O)C(=O)[C@H]1CC[C@H](C)CC1 [Compound 66, 5-(3,3-Dimethylbut-1-ynyl)-3-[[(1S,2S)-1-(dimethylcarbamoyl)-2-methoxy-propyl]-(trans-4-methylcyclohexanecarbonyl)amino]thiophene-2-carboxylic acid] | < 0.1 µM | > 100 µM |  |
| CC(C)(C)C#Cc1cc(N(CC(=O)N2CCSCC2)C(=O)[C@H]2CC[C@H](C)CC2)c(C(=O)O)s1 [Compound 127, 5-(3,3-dimethylbut-1-ynyl)-3-[(trans-4-methylcyclohexanecarbonyl)-(2-oxo-2-thiomorpholino-ethyl)amino]thiophene-2-carboxylic acid] |  | 10 to 100 µM | < 0.1 µM |
| C[C@@H]1CN(C(=O)[C@H](C)N(c2cc(C#CC(C)(C)C)sc2C(=O)O)C(=O)[C@H]2CC[C@H](C)CC2)C[C@H](C)O1 [Compound 48, 5-(3,3-Dimethylbut-1-ynyl)-3-[[(1S)-2-[(2R,6S)-2,6-dimethylmorpholin-4-yl]-1-methyl-2-oxo-ethyl]-(trans-4-methylcyclohexanecarbonyl)amino]thiophene-2-carboxylic acid] | < 0.1 µM | 10 to 100 µM |  |
